This is an account of results in PMC3331894 (Journal of Immunology (Baltimore, Md. : 1950), 2012).

Test [1] relates to CD4 T cells. The following applies: immunodominant or cryptic epitope presented by I-A^d; cited from earlier work.
The target in test [2] is purified soluble DR1 molecules (Homo sapiens, UniProt P01903+P01911, A100R/D57E/F55L/F60I/F76Y/I96L/L162R/M171V/P40L/Q125E/R42F/V115G/Y59C). In kind it is binding.
Test [3] has as its system CD4 T cells. Type of test: cell-based, HLA-DR1 transgenic mice. The following applies: average of at least 3 independent assays.

Regarding AMKRHGLDNYRGYSL [HEL[11–25]], the “Immune Response” value in test [1] was “Cryptic”.

Consider ELLVLLENERTLDFHD [HA-440], for which, in test [2], the “dissociation half-time (t1/2) of DR1:peptide complexes” value (from here on “dissociation half-time”) came out at 14.6 days and the “t1/2 (h) pH 5.3, dissociation of DR1:peptide complexes” value (shortened to “t1/2 (h) pH 5.3, dissociation”) was found to be 350 h. Further, the “Cytokine Spots (number of CD4 T cell recruited per million)” value in test [3] is recorded as 146 spots per million CD4 T cells.

In the case of HNTNGVTAACSHE [HA[126–138]], in test [1], the “Immune Response” value is on record as “Cryptic”.

Turning to HNVNGVTAACSHE [HA[126–138]T128V], the “Immune Response” value in test [1] is “Dominant”.

With KRNLLWLTGKNGL [HA-162], in test [2], the “dissociation half-time” value is 3.54 days and the “t1/2 (h) pH 5.3, dissociation” value amounted to 85 h. For the same sequence, the “Cytokine Spots (number of CD4 T cell recruited per million)” value in test [3] is listed as 163 spots per million CD4 T cells.

Consider MEERKIKVYLPRMKME [OVA[273–288]], for which the “Immune Response” value in test [1] is reported as “Dominant”.

Take SGYAADQKSTQNAINGI [HA-375]: in test [2], the “dissociation half-time” value stood at 25 days and the “t1/2 (h) pH 5.3, dissociation” value was found to be 600 h.
